Source: patent publication US20260256870A1, “SKIN COMPOSITION” (Eaderm Co., Ltd., priority 2019, published 2026)
Structures can show the parent of a compound that is named as a salt.

tested on: human epidermal keratinocytes; assay: Colony formation assay using human epidermal keratinocytes; assay type: cell-based; details: Table 1
Text: To test whether COL17A1-mediated SCD maintains clonal proliferation of epidermal stem cell clones, the present inventors used a colony formation assay, which is an in vitro assay said to be the gold standard for assessing the self-renewal ability of epidermal stem cells, including cells in the tail epidermis.

| Compound | Colony area (control ratio) | Colony number (control ratio) |
| --- | --- | --- |
| CC(=N)NCc1cccc(CN)c1 [1400 W] | ○ | ○ |
| N=C(N)NN [Aminoguanidine] | ○ | ○ |
| CCCCc1oc2ccccc2c1C(=O)c1cc(I)c(OCCN(CC)CC)c(I)c1 [Amiodarone Hydrochloride] | ○ | ⊚ (one double circle (⊚) indicates maintenance of 1.0-1.2-fold) |
| O=c1cc(-c2ccc(O)cc2)oc2cc(O)cc(O)c12 [Apigenin] | ○ | ○ |
| COc1ccc(-c2coc3cc(O)cc(O)c3c2=O)cc1 [Biochanin A] | ○ | ○ |
| Cc1ccc(-c2cc(C(F)(F)F)nn2-c2ccc(S(N)(=O)=O)cc2)cc1 [Celecoxib] | ⊚ (one double circle (⊚) indicates maintenance of 1.0-1.2-fold) | ⊚ (one double circle (⊚) indicates maintenance of 1.0-1.2-fold) |
| c1ccc2c(c1)[I+]c1ccccc1-2 [Diphenyleneiodonium (DPI), Diphenyleneiodonium] | ○ | ○ |

tested on: COL17A1; assay: COL17A1 expression in human epidermal keratinocytes by high content imaging (HCS); assay type: cell-based; details: not given
Protocol: The present inventors further searched for substances that induce or maintain the expression of COL17A1. Human epidermal keratinocytes were seeded in 384-well plates, cultured for 48 hours after addition of reagents, immunostained with an anti-COL17A1 antibody and a fluorescently labeled secondary antibody, and then the fluorescence intensity per cell was detected using a high content imaging system (HCS: High Content Screening). In addition to cell counting with DAPI, the expression level of COL17A1 was quantified.

| Compound | COL17A1 expression level (control ratio) |
| --- | --- |
| O=P1(N(CCCl)CCCl)NCCCO1 (stereo not drawn) [Cyclophosphamide hydrate] | 0.88 |

same assay, conditions: Table 1; human epidermal keratinocytes, 48 hours after addition of reagents, fluorescence intensity per cell

| Compound | COL17A1 expression level (control ratio) |
| --- | --- |
| CC(=N)NCc1cccc(CN)c1 [1400 W] | ○ (one circle (0) represents a 1.0-1.2-fold maintenance) |
| COc1ccc2c(c1)c(CC(=O)OCC(=O)O)c(C)n2C(=O)c1ccc(Cl)cc1 [Acemetacin] | ⊚ (one double circle (⊚) represents a 1.2-fold or greater increase) |
| N=C(N)NN [Aminoguanidine] | ○ (one circle (0) represents a 1.0-1.2-fold maintenance) |
| CCCCc1oc2ccccc2c1C(=O)c1cc(I)c(OCCN(CC)CC)c(I)c1 [Amiodarone Hydrochloride] | ⊚⊚ (two double circles (⊚⊚) in the COL17A1 expression level (control ratio) represent a 2.0-fold or greater increase in the expression level) |
| O=c1cc(-c2ccc(O)cc2)oc2cc(O)cc(O)c12 [Apigenin] | ⊚⊚ (two double circles (⊚⊚) in the COL17A1 expression level (control ratio) represent a 2.0-fold or greater increase in the expression level) |
| C[C@H]1[C@@H](O)O[C@@H]2O[C@@]3(C)CC[C@H]4[C@H](C)CC[C@@H]1[C@@]24OO3 [Artenimol] | ⊚ (one double circle (⊚) represents a 1.2-fold or greater increase) |
| C[C@H]1C[C@H]2[C@@H]3CCC4=CC(=O)C=C[C@]4(C)[C@@]3(F)[C@@H](O)C[C@]2(C)[C@@]1(O)C(=O)CO [Bethamethazone] | ⊚⊚ (two double circles (⊚⊚) in the COL17A1 expression level (control ratio) represent a 2.0-fold or greater increase in the expression level) |
| COc1ccc(-c2coc3cc(O)cc(O)c3c2=O)cc1 [Biochanin A] | ⊚ (one double circle (⊚) represents a 1.2-fold or greater increase) |
| CCCCOc1ccc(CC(=O)NO)cc1 [Bufexamac] | ⊚ (one double circle (⊚) represents a 1.2-fold or greater increase) |
| Cc1ccc(-c2cc(C(F)(F)F)nn2-c2ccc(S(N)(=O)=O)cc2)cc1 [Celecoxib] | ⊚ (one double circle (⊚) represents a 1.2-fold or greater increase) |
| Clc1ccccc1C(c1ccccc1)(c1ccccc1)n1ccnc1 [Clotrimazole] | ⊚ (one double circle (⊚) represents a 1.2-fold or greater increase) |
| COc1ccc(-c2cc(C(F)F)nn2-c2ccc(S(N)(=O)=O)cc2)cc1F [Deracoxib] | ⊚ (one double circle (⊚) represents a 1.2-fold or greater increase) |
| c1ccc2c(c1)[I+]c1ccccc1-2 [Diphenyleneiodonium (DPI), Diphenyleneiodonium] | ⊚ (one double circle (⊚) represents a 1.2-fold or greater increase) |
| O=C(O)c1cccnc1Nc1cccc(C(F)(F)F)c1 [Niflumic Acid] | ⊚ (one double circle (⊚) represents a 1.2-fold or greater increase) |
| CN1C(C(=O)Nc2ccccn2)=C(O)c2sccc2S1(=O)=O [Tenoxicam] | ⊚ (one double circle (⊚) represents a 1.2-fold or greater increase) |
| Cc1c(Cl)cccc1Nc1ccccc1C(=O)O [Tolfenamic Acid] | ⊚ (one double circle (⊚) represents a 1.2-fold or greater increase) |
| C[C@]12C=CC(=O)C=C1CC[C@H]1[C@@H]3C[C@@H](O)[C@](O)(C(=O)CO)[C@@]3(C)C[C@H](O)[C@@]12F [Triamcinolone] | ⊚ (one double circle (⊚) represents a 1.2-fold or greater increase) |
| Monensin Sodium | ⊚ (one double circle (⊚) represents a 1.2-fold or greater increase) |

same assay, conditions: Table 3; anticancer drugs and molecularly targeted drugs

| Compound | COL17A1 expression level (control ratio) |
| --- | --- |
| O=NN(CCCl)C(=O)NCCCl [Carmustine] | 0.94 |
| N.N.[Cl][Pt][Cl] [Cisplatin] | 0.97 |
| CN(C)/N=N/c1[nH]cnc1C(N)=O [Dacarbazine] | 0.94 |
| C=C1C[C@@H]2[C@H](CC[C@]3(C)C(=O)CC[C@@H]23)[C@@]2(C)C=CC(=O)C=C12 [Exemestane] | 0.93 |
| Nc1nc(F)nc2c1ncn2[C@@H]1O[C@H](COP(=O)(O)O)[C@@H](O)[C@@H]1O [Fludarabine phosphate] | 0.90 |
| CC(=O)O.O=c1[nH]cc(F)c(=O)[nH]1 [Fluorouracil acetate] | 0.88 |
| Nc1ccn([C@@H]2O[C@H](CO)[C@@H](O)C2(F)F)c(=O)n1 [Gemcitabine] | 0.96 |
| NC(=O)NO [Hydroxyurea] | 0.92 |
| O=P1(NCCCl)OCCCN1CCCl (stereo not drawn) [Ifosfamide] | 0.84 |
| S=c1nc[nH]c2nc[nH]c12 [Mercaptopurine] | 0.83 |
| Clc1ccc(C(c2ccccc2Cl)C(Cl)Cl)cc1 (stereo not drawn) [Mitotane] | 0.98 |
| COc1cccc(-c2cc(=O)c3ccccc3o2)c1N [PD98059] | 0.84 |
| COc1ccc(C[C@H](N)C(=O)N[C@H]2[C@@H](O)[C@H](n3cnc4c(N(C)C)ncnc43)O[C@@H]2CO)cc1 [Puromycin hydrochloride] | 0.85 |
| CC/C(=C(\c1ccccc1)c1ccc(OCCN(C)C)cc1)c1ccccc1 [Tamoxifen citrate] | 0.78 |
| O=c1[nH]c(=O)n(C2CCCO2)cc1F (stereo not drawn) [Tegafur] | 0.90 |
| Cn1nnc2c(C(N)=O)ncn2c1=O [Temozolomide] | 0.98 |
| CCC(=O)O[C@H]1CC[C@H]2[C@@H]3CCC4=CC(=O)CC[C@]4(C)[C@H]3CC[C@]12C [Testosterone propionate] | 0.84 |
| Toremiphene citrate | 0.94 |
